Measurements as given in ChEMBL document CHEMBL4270635, “HDAC3 is a potential validated target for cancer: An overview on the benzamide-based selective HDAC3 inhibitors through comparative SAR/QSAR/QAAR approaches” (Eur J Med Chem, 2018).

How the values were obtained:
Histone deacetylase 3 = Histone deacetylase 3 (Homo sapiens, UniProt O15379); test: Inhibition of HDAC3 (unknown origin)
Homo sapiens [1] = organism: Homo sapiens; test: Selectivity ratio of IC50 for HDAC1 (unknown origin) to IC50 for HDAC3 (unknown origin)
Homo sapiens [2] = organism: Homo sapiens; test: Selectivity ratio of IC50 for HDAC4 (unknown origin) to IC50 for HDAC3 (unknown origin)
Homo sapiens [3] = organism: Homo sapiens; test: Selectivity ratio of IC50 for HDAC6 (unknown origin) to IC50 for HDAC3 (unknown origin)
Homo sapiens [4] = organism: Homo sapiens; test: Selectivity ratio of IC50 for HDAC2 (unknown origin) to IC50 for HDAC3 (unknown origin)
Homo sapiens [5] = organism: Homo sapiens; test: Selectivity ratio of IC50 for HDAC8 (unknown origin) to IC50 for HDAC3 (unknown origin)
Homo sapiens [6] = organism: Homo sapiens; test: Selectivity ratio of IC50 for HDAC7 (unknown origin) to IC50 for HDAC3 (unknown origin)
[7] = molecular target: T1, Histone deacetylase 3/Nuclear receptor corepressor 2 (HDAC3/NCoR2) (Homo sapiens, UniProt O15379); test: biochemical; format: cell-based
T1 sequence (O15379 whole entry, the tested form may be a part): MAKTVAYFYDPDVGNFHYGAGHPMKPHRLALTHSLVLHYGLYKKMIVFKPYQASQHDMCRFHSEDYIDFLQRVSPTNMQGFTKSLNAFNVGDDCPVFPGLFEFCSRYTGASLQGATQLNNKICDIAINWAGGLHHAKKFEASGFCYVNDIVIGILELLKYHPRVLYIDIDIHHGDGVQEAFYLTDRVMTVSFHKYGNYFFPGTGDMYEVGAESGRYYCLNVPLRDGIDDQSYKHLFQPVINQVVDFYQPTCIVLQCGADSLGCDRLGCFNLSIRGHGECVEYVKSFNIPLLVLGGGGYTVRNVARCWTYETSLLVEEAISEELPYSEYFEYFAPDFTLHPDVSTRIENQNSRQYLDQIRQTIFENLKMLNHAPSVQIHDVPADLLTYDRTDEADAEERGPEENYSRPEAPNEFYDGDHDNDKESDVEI
T1 sequence (Q9Y618 whole entry, further chain, the tested form may be a part): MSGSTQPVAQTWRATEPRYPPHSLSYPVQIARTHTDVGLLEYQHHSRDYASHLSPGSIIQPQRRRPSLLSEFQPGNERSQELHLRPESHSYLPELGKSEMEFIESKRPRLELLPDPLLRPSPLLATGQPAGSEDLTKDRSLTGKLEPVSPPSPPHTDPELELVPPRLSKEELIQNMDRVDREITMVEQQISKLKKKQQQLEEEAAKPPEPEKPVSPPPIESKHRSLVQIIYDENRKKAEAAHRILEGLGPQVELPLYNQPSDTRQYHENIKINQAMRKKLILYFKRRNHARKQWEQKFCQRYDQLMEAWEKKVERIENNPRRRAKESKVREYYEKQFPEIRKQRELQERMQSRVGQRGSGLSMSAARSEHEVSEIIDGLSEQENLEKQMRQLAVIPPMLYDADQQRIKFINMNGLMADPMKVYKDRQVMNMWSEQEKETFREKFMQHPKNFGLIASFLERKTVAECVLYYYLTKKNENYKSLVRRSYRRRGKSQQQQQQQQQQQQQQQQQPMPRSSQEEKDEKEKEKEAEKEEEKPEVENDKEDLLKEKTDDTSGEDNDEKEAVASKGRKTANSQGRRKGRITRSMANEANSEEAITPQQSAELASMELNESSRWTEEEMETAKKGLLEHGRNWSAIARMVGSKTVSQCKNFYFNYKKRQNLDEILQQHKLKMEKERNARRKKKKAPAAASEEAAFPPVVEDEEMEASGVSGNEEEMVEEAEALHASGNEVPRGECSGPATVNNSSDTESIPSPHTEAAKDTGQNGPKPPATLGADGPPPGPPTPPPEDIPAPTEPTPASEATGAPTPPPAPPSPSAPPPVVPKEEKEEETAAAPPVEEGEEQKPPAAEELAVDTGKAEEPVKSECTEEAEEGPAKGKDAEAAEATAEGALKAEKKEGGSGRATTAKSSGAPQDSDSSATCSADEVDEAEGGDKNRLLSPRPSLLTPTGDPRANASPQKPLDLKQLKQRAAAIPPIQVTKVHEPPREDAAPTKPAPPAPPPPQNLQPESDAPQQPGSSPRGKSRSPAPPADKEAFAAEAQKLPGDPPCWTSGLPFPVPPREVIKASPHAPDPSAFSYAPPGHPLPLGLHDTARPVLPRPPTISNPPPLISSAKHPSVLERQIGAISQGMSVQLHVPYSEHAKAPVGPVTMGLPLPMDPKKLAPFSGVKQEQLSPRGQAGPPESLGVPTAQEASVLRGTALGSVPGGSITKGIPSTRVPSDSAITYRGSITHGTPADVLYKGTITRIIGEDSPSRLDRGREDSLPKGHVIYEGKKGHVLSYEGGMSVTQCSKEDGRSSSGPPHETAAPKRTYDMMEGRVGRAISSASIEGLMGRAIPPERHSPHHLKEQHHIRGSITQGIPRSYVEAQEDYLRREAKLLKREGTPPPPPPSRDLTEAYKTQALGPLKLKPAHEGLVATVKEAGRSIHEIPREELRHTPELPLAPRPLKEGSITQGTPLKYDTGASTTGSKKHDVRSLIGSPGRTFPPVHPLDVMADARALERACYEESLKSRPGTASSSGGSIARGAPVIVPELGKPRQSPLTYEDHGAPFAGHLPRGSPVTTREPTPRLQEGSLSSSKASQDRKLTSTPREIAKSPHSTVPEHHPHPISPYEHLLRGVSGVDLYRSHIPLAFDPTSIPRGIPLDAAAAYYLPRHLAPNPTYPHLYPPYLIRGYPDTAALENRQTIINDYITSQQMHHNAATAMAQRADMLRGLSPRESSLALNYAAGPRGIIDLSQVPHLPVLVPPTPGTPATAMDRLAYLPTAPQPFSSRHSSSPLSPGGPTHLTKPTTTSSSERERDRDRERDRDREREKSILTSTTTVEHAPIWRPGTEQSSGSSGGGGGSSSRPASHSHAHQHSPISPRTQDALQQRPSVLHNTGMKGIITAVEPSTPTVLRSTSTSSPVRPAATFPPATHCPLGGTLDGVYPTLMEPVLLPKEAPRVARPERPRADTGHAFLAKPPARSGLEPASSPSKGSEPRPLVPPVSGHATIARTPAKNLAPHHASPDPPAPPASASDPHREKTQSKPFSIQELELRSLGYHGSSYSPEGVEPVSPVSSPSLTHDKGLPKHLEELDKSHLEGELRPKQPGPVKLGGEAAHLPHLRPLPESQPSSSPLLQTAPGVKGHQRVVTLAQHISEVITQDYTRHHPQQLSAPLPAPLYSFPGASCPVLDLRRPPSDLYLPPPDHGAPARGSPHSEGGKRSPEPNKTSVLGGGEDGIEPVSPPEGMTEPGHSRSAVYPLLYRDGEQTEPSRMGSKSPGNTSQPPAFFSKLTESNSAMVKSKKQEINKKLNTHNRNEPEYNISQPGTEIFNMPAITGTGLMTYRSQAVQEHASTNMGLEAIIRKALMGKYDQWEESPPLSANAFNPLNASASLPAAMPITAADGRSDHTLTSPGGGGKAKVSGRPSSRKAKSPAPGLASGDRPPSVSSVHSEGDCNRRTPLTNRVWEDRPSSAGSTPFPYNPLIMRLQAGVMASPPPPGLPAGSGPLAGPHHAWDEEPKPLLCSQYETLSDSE
Description: Inhibition of His6-tagged HDAC3/SMRT (395 to 489 residues) (unknown origin) co-expressed in baculovirus infected sf9 cells using (FAM)-labeled acetylated peptide substrate after 17 hrs by caliper microfluidic mobility shift assay

[8] = molecular target: T1, Histone deacetylase 3/Nuclear receptor corepressor 2 (HDAC3/NCoR2); test: Inhibition of full length human C-terminal His-tagged HDAC3/N-terminal GST-tagged NCOR2 (395 to 489 residues) co-expressed in baculovirus infected sf9 cells using (FAM)-labeled acetylated peptide substrate after 60 mins by caliper microfluidic mobility shift assay

Sequence of Histone deacetylase 3 (O15379 whole entry): as the sequence (O15379 whole entry, the tested form may be a part) above

Compound	IC50 [7] [nM]	IC50 [8] [nM]	further results
C=C1CN(Cc2ccc(C(=O)Nc3ccccc3N)cc2)C(=O)c2ccccc21			IC50 (Histone deacetylase 3): 16 nM; Ratio IC50 (Homo sapiens [1]): 2; Ratio IC50 (Homo sapiens [2]): 2; Ratio IC50 (Homo sapiens [3]): 2; Ratio IC50 (Homo sapiens [4]): 2; Ratio IC50 (Homo sapiens [5]): 2; Ratio IC50 (Homo sapiens [6]): 2
Nc1ccccc1NC(=O)CCCCCCC(=O)Nc1ccc(-c2cn(Cc3ccccc3)nn2)cc1	1500		
Nc1cc(F)ccc1NC(=O)c1ccc(NC(=O)C2(c3ccccc3)CC2)cn1		1000	
CC(C)(C)OC(=O)Nc1cccc(-c2csc(NC(=O)CCCCCCC(=O)Nc3ccccc3N)n2)c1	160		
Nc1ccccc1NC(=O)CCCCCCC(=O)NOCc1ccccc1	552		
CCOC(=O)Nc1cccc(-c2csc(NC(=O)CCCCCCC(=O)Nc3ccccc3N)n2)c1	60		
Nc1cccc(-c2csc(NC(=O)CCCCCCC(=O)Nc3ccccc3N)n2)c1	60.3		
CC(C)[C@H](C(=O)Nc1ccc(C(=O)Nc2ccc(F)cc2N)cc1)c1ccccc1		80	
C[C@H](C(=O)Nc1ccc(C(=O)Nc2ccc(F)cc2N)cc1)c1ccccc1		130 to 230	
Nc1ccccc1NC(=O)CCCCCCC(=O)NO	21.1		
CC(C)[C@@H](C(=O)Nc1ccc(C(=O)Nc2ccc(F)cc2N)cc1)c1ccccc1		300 to 1700	
CC(=O)Nc1cccc(-c2csc(NC(=O)CCCCCCC(=O)Nc3ccccc3N)n2)c1	30		
CC(=O)Nc1ccc(C(=O)Nc2ccc(F)cc2N)cc1			Ratio IC50 (Homo sapiens [1]): 17; Ratio IC50 (Homo sapiens [4]): 17

More lines, main results first:

IC50 [7] [nM]	IC50 [8] [nM]	Compound	further results
	110 to 530	CC[C@H](C(=O)Nc1ccc(C(=O)Nc2ccc(F)cc2N)cc1)c1ccccc1	
	200	Nc1cc(F)ccc1NC(=O)c1ccc(NC(=O)C2(c3ccccc3)CC2)cc1	
	210 to 579	C[C@@H](C(=O)Nc1ccc(C(=O)Nc2ccc(F)cc2N)cc1)c1ccccc1	
	60 to 170	CC[C@@H](C(=O)Nc1ccc(C(=O)Nc2ccc(F)cc2N)cc1)c1ccccc1	
